Counter-ions that a name gives are not always drawn.
Assays:
B. Fragilis NCTC 10581 = experiment: Anti-anaerobic activity, strain A (microtitre plate MIC/MBC); assay type: cell-based, Bacteroides fragilis; conditions: Bacteroides fragilis, NCTC10581, 48 h, strain A; less than 5 colonies (99.9% reduction in viable count) after 48 hours; read-out: MBC
B. Fragilis ATCC 11295 = experiment: Anti-anaerobic activity, strain D (microtitre plate MIC/MBC); assay type: cell-based; conditions: Bacteroides fragilis, ATCC11295, 48 h, strain D; less than 5 colonies (99.9% reduction in viable count) after 48 hours; read-out: MBC
P. acnes NCTC 7337 = experiment: Anti-anaerobic activity, additional strains; assay type: cell-based, Propionibacterium acnes; conditions: Cutibacterium acnes, NCTC7337, P. acnes NCTC 7337
[1] = test system: Fuso. necrophorum ATCC 11295; experiment: Anti-anaerobic activity, additional strains; assay type: cell-based; conditions: Fusobacterium necrophorum, ATCC11295
[2] = test system: Cl. perfringens NCTC 8237; experiment: microbe, parasite or virus in culture; assay type: cell-based; conditions: Clostridium perfringens, NCTC8237
B. Fragilis WS-1 = experiment: Anti-anaerobic activity, strain E (microtitre plate MIC/MBC); assay type: cell-based; conditions: Bacteroides fragilis, 48 h, strain E; 48 hours, 37° C., anaerobic chamber; lowest concentration with no detectable growth; read-out: MIC
Trichomonas vaginalis = experiment: MIC against Trichomonas vaginalis (Diamonds Medium); assay type: cell-based
[3] = test system: Peptococc. magnus ATCC 29328; experiment: Anti-anaerobic activity, additional strains; assay type: cell-based; conditions: Peptococc. magnus ATCC 29328
P. prevotti ATCC 9321 = experiment: Anti-anaerobic activity, additional strains; assay type: cell-based
[4] = test system: Clostridium perfringens NCTC 523; experiment: microbe, parasite or virus in culture; assay type: cell-based; conditions: NCTC523
[5] = test system: Propionibacterium acnes NCTC 737; experiment: Anti-anaerobic activity, additional strains; assay type: cell-based; conditions: Cutibacterium acnes, NCTC737
[6] = test system: Peptostrepto anaerobicus ATCC 27337; experiment: Anti-anaerobic activity, additional strains; assay type: cell-based
Campl. fetus ATCC 29428 = experiment: Anti-anaerobic activity, additional strains; assay type: cell-based; conditions: Campylobacter fetus, ATCC29428, Campl. fetus ATCC 29428
B. Fragilis NCTC 9344 = experiment: Anti-anaerobic activity, strain C (microtitre plate MIC/MBC); assay type: cell-based; conditions: Bacteroides fragilis, NCTC9344, 48 h, strain C; less than 5 colonies (99.9% reduction in viable count) after 48 hours; read-out: MBC
B. Fragilis NCTC 9343 = experiment: Anti-anaerobic activity, strain B (microtitre plate MIC/MBC); assay type: cell-based, Bacteroides fragilis; conditions: Bacteroides fragilis, NCTC9343, 48 h, strain B

Clc1ccc(N2CCN=C2C(Cn2ccnc2)c2ccccc2)c(Cl)c1 (stereo not shown) [Example 3, 1-(2,4-Dichlorophenyl)-4,5-dihydro-2-[2-(imidazol-1-yl)-1-phenylethyl]imidazole hydrochloride]
MBC (B. Fragilis NCTC 10581): 0.8 mg/L
MBC (B. Fragilis ATCC 11295): 0.8 mg/L
MBC (P. acnes NCTC 7337; read-out: MBC): 0.8 mg/L
MIC (P. acnes NCTC 7337; read-out: MIC): 0.8 mg/L
MIC [1]: 3.1 mg/L
MBC ([1]; Fuso. necrophorum ATCC 11295, read-out: MBC): 6.2 mg/L
MBC [2]: 3.1 mg/L
MIC [2]: 3.1 mg/L
MIC (B. Fragilis WS-1): 1.5 mg/L
MIC (Trichomonas vaginalis): 3.1 mg/L
MIC [3]: 1.5 mg/L
MBC ([3]; read-out: MBC): 6.2 mg/L
MIC (P. prevotti ATCC 9321): 3.1 mg/L
MBC (P. prevotti ATCC 9321; P. prevotti ATCC 9321): 12.5 mg/L
MBC [4]: 3.1 mg/L
MIC [4]: 0.8 mg/L
MBC [5]: 3.1 mg/L
MIC ([5]; Propionibacterium acnes NCTC 737, read-out: MIC): 0.8 mg/L
MBC [6]: 3.1 mg/L
MIC ([6]; Peptostrepto anaerobicus ATCC 27337): 1.5 mg/L
MBC (Campl. fetus ATCC 29428; read-out: MBC): 6.2 mg/L
MIC (Campl. fetus ATCC 29428; read-out: MIC): 1.5 mg/L
MBC (B. Fragilis NCTC 9344): 0.8 mg/L
MIC (B. Fragilis NCTC 9343; 48 hours, 37° C., anaerobic chamber, lowest concentration with no detectable growth, read-out: MIC): 1.5 mg/L
MBC (B. Fragilis NCTC 9343; less than 5 colonies (99.9% reduction in viable count) after 48 hours, read-out: MBC): 1.5 mg/L
